We go through 106 substances from patent US20230357447A1, “TUMOR ACTIVATED MULTISPECIFIC ANTIBODIES FOR TARGETING CD28 AND PD-L1 AND METHODS OF USE THEREOF” (Janux Therapeutics, Inc., priority 2022, published 2023).

This assay relates to anti-CD28 scFv. In words: Phage binding ELISA (panning) of clonal phage on anti-CD28 scFv, with or without CD28 soluble protein. The conditions noted are these: clonal phage supernatant; background signal. Here is the method: Clonal phage were harvested as crude supernatants and screened via standard enzyme linked immunosorbent assays (ELISAs). […] Prior to the addition of clonal phage, wells were incubated with blocking buffer and CD28 soluble protein or blocking buffer alone. Without washing or aspirating, clonal phage supernatants were then added to the wells and incubated for a short time. Wells were then washed followed by detection of bound phage using a horse radish peroxidase conjugated anti-M13 antibody. Clonal phage of interest were then sent for sequence analysis.
For orientation: An ELISA detects its analyte on a solid surface through an enzyme-linked reagent.
On to Phage-228 (ITWCHVISGLECWN), for which the “Phage binding ELISA Backgroud signal” value was 0.076.

In the case of Phage-229 (VPWCQIISGLECLT), the “Phage binding ELISA Backgroud signal” value is reported as 0.076.

As to Phage-230 (APWCQIISGLECLT), the “Phage binding ELISA Backgroud signal” value was found to be 0.080.

As to Phage-231 (VPWCLIISGLDCLN), the “Phage binding ELISA Backgroud signal” value amounted to 0.455.

For Phage-232 (MDWCARFVGYGCLD), the “Phage binding ELISA Backgroud signal” value turned out to be 0.948.

For the substance Phage-233 (MTWCPTSFWNRCLD), the “Phage binding ELISA Backgroud signal” value turned out to be 0.142.

Consider Phage-234 (MDWCPRALWFECFF), for which the “Phage binding ELISA Backgroud signal” value is listed as 0.111.

Regarding Phage-235 (MDWCPRYLWHECFS), the “Phage binding ELISA Backgroud signal” value turned out to be 0.063.

For the substance Phage-236 (MDWCPRDLWNLCFF), the “Phage binding ELISA Backgroud signal” value was found to be 0.084.

With Phage-237 (MDWCPSYLWHECFF), the “Phage binding ELISA Backgroud signal” value was 0.067.

For Phage-238 (MDWCPPYLWSECFA), the “Phage binding ELISA Backgroud signal” value was 0.539.

Regarding Phage-239 (MDWCPRYLWHVCFN), the “Phage binding ELISA Backgroud signal” value is listed as 0.187.

Consider Phage-240 (MDWCPRTLWHVCFN), for which the “Phage binding ELISA Backgroud signal” value is given as 0.317.

For Phage-241 (MDWCPRHLWHECYS), the “Phage binding ELISA Backgroud signal” value is 0.066.

Phage-242 (MDWCPKHLWTECFA): the “Phage binding ELISA Backgroud signal” value is on record as 0.098.

On to Phage-243 (MDWCPRHLWYECFN), for which the “Phage binding ELISA Backgroud signal” value was determined as 0.063.

With Phage-244 (MDWCPRYLWHECFD), the “Phage binding ELISA Backgroud signal” value was 0.071.

Consider Phage-245 (MDWCPRNLWHLCFA), for which the “Phage binding ELISA Backgroud signal” value is 0.082.

For the substance Phage-246 (MDWCPKHLWNKCFN), the “Phage binding ELISA Backgroud signal” value is 0.075.

As to Phage-247 (MDWCPRFMWAECFN), the “Phage binding ELISA Backgroud signal” value was 0.073.

Phage-248 (MDWCPRNMWHHCFD): the “Phage binding ELISA Backgroud signal” value came out at 0.205.

For the substance Phage-249 (MDWCPSDMWAHCYN), the “Phage binding ELISA Backgroud signal” value amounted to 0.191.

On to Phage-250 (MDWCPKVMWHYCFA), for which the “Phage binding ELISA Backgroud signal” value turned out to be 0.136.

As to Phage-251 (MDWCPRFMWSECFS), the “Phage binding ELISA Backgroud signal” value was found to be 0.092.

Phage-252 (MDWCPRHMWINCFA): the “Phage binding ELISA Backgroud signal” value was determined as 0.091.

On to Phage-253 (MVGCATSMWNRCLT), for which the “Phage binding ELISA Backgroud signal” value is reported as 0.256.

Turning to Phage-254 (MDWCPRYLWSECFA), the “Phage binding ELISA Backgroud signal” value is 0.078.

With Phage-255 (MDWCPRHLWSVCFN), the “Phage binding ELISA Backgroud signal” value is 0.064.

Turning to Phage-256 (MDWCPFDLWHVCYN), the “Phage binding ELISA Backgroud signal” value is 0.089.

Consider Phage-257 (MDWCPRFLWHECFN), for which the “Phage binding ELISA Backgroud signal” value came to 0.079.

For Phage-258 (MDWCPRSLWHVCFN), the “Phage binding ELISA Backgroud signal” value came out at 0.098.

Regarding Phage-259 (MDWCPRNLWHACFN), the “Phage binding ELISA Backgroud signal” value amounted to 0.071.

Consider Phage-260 (MDWCPVFMWNECFN), for which the “Phage binding ELISA Backgroud signal” value is on record as 0.079.

On to Phage-261 (MDWCPMFMWHECFN), for which the “Phage binding ELISA Backgroud signal” value is recorded as 0.102.

On to Phage-262 (MYWCATSMWNRCFV), for which the “Phage binding ELISA Backgroud signal” value worked out at 0.248.

Phage-263 (MDWCPRHMWHECFA): the “Phage binding ELISA Backgroud signal” value is 0.074.

As to Phage-264 (MDWCPRHLWHVCFN), the “Phage binding ELISA Backgroud signal” value was 0.070.

With Phage-265 (MDWCPRFMWDLCFA), the “Phage binding ELISA Backgroud signal” value came to 0.270.

Turning to Phage-266 (VTSCPTTMWNRCFS), the “Phage binding ELISA Backgroud signal” value stood at 0.396.

On to Phage-267 (MTLCLSVDLVHCWY), for which the “Phage binding ELISA Backgroud signal” value is on record as 0.114.

As for Phage-269 (DSFCTWSAWQECGR), the “Phage binding ELISA Backgroud signal” value is 0.072.

In the case of Phage-270 (MDWCPRDFWAFCFF), the “Phage binding ELISA Backgroud signal” value worked out at 0.118.

Turning to Phage-271 (MDWCPTSFWNRCFH), the “Phage binding ELISA Backgroud signal” value is recorded as 0.102.

For Phage-272 (MVWCMSVGWAVCLN), the “Phage binding ELISA Backgroud signal” value is 0.289.

For Phage-274 (WVSCLRHHWLECFH), the “Phage binding ELISA Backgroud signal” value was 0.781.

As to Phage-275 (MDWCPRDHWVDCYS), the “Phage binding ELISA Backgroud signal” value is on record as 0.172.

Consider Phage-276 (IDWCPKIHWDLCYF), for which the “Phage binding ELISA Backgroud signal” value is given as 0.072.

On to Phage-277 (MDWCPRSHWSECFS), for which the “Phage binding ELISA Backgroud signal” value is recorded as 0.080.

As to Phage-279 (MDWCPRYLWAECFN), the “Phage binding ELISA Backgroud signal” value was 0.068.

On to Phage-280 (MDWCPRYLWDYCFA), for which the “Phage binding ELISA Backgroud signal” value turned out to be 0.073.

As for Phage-281 (MDWCPRSLWFLCFN), the “Phage binding ELISA Backgroud signal” value is 1.110.

In the case of Phage-282 (MDWCPRDLWFACFA), the “Phage binding ELISA Backgroud signal” value is 0.060.

Phage-283 (MDWCPRHLWNECFN): the “Phage binding ELISA Backgroud signal” value is reported as 0.079.

As for Phage-284 (MDWCPRFLWHVCFS), the “Phage binding ELISA Backgroud signal” value amounted to 2.091.

Consider Phage-285 (MDWCPRDLWAMCFA), for which the “Phage binding ELISA Backgroud signal” value was found to be 0.071.

In the case of Phage-286 (MERCPRYLWHMCYS), the “Phage binding ELISA Backgroud signal” value worked out at 0.164.

Take Phage-288 (MDWCPIALWDFCFA): the “Phage binding ELISA Backgroud signal” value is reported as 0.073.

On to Phage-290 (MDWCPRDLWSVCFS), for which the “Phage binding ELISA Backgroud signal” value is on record as 0.090.

For Phage-291 (MDWCPRYLWHVCFY), the “Phage binding ELISA Backgroud signal” value came out at 0.227.

Consider Phage-292 (MDWCPRALWDHCFF), for which the “Phage binding ELISA Backgroud signal” value is 0.081.

Phage-293 (MDWCPRHLWFECFN): the “Phage binding ELISA Backgroud signal” value was determined as 0.064.

As for Phage-294 (MDWCPRSLWDYCFA), the “Phage binding ELISA Backgroud signal” value was found to be 0.115.

Regarding Phage-299 (MDWCPIYLWAECFN), the “Phage binding ELISA Backgroud signal” value is given as 0.078.

As to Phage-300 (MDWCPRHLWFECFF), the “Phage binding ELISA Backgroud signal” value was 0.178.

With Phage-301 (MDWCPRYLWHECFF), the “Phage binding ELISA Backgroud signal” value worked out at 0.082.

For Phage-302 (MDWCPRYLWHVCFD), the “Phage binding ELISA Backgroud signal” value was determined as 0.068.

Turning to Phage-303 (MDWCPRYLWTECFS), the “Phage binding ELISA Backgroud signal” value was found to be 0.074.

For Phage-304 (MDWCPKFLWDECFA), the “Phage binding ELISA Backgroud signal” value worked out at 0.311.

In the case of Phage-305 (MDWCPRDLWTECFS), the “Phage binding ELISA Backgroud signal” value was 0.080.

For Phage-306 (MDWCPRHLWNECFA), the “Phage binding ELISA Backgroud signal” value was determined as 0.068.

In the case of Phage-307 (MDWCPRYLWPVCFH), the “Phage binding ELISA Backgroud signal” value is 0.179.

With Phage-308 (MDWCPKSLWAECFN), the “Phage binding ELISA Backgroud signal” value came to 0.395.

In the case of Phage-309 (MDWCPMFLWHECFN), the “Phage binding ELISA Backgroud signal” value is 0.170.

In the case of Phage-310 (MDWCPRDLWDECFN), the “Phage binding ELISA Backgroud signal” value is 0.066.

Turning to Phage-311 (MDWCPRDLWYQCFN), the “Phage binding ELISA Backgroud signal” value is given as 0.069.

As for Phage-313 (MDWCPRSLWNYCFN), the “Phage binding ELISA Backgroud signal” value is listed as 0.076.

Phage-314 (MDWCPIHLWNECFN): the “Phage binding ELISA Backgroud signal” value was determined as 0.074.

For Phage-315 (MDWCPTYLWHVCFS), the “Phage binding ELISA Backgroud signal” value was 0.089.

In the case of Phage-316 (MDWCPRSLWNYCFA), the “Phage binding ELISA Backgroud signal” value amounted to 0.067.

Phage-317 (MDWCPRHLWHECFT): the “Phage binding ELISA Backgroud signal” value stood at 0.103.

Turning to Phage-318 (MDWCPMFLWDECFN), the “Phage binding ELISA Backgroud signal” value was found to be 0.132.

Consider Phage-319 (MSWCPRDLWHLCFF), for which the “Phage binding ELISA Backgroud signal” value is on record as 0.077.

With Phage-320 (MDWCPTYLWNECFN), the “Phage binding ELISA Backgroud signal” value was determined as 0.120.

In the case of Phage-321 (MDWCPRDLWYVCFA), the “Phage binding ELISA Backgroud signal” value worked out at 0.095.

For the substance Phage-322 (MDWCPRHLWIECFN), the “Phage binding ELISA Backgroud signal” value is reported as 0.339.

For the substance Phage-323 (MDWCPTYLWNVCFA), the “Phage binding ELISA Backgroud signal” value turned out to be 0.085.

For Phage-324 (MDWCPRHLWYECFS), the “Phage binding ELISA Backgroud signal” value was determined as 0.216.

For the substance Phage-325 (MDWCPAYLWDECFA), the “Phage binding ELISA Backgroud signal” value turned out to be 0.096.

For Phage-326 (MFWCPITLWNECFN), the “Phage binding ELISA Backgroud signal” value worked out at 0.075.

As for Phage-327 (MHWCPRDLWHVCFN), the “Phage binding ELISA Backgroud signal” value turned out to be 0.071.

On to Phage-328 (MDWCPRALWDHCFN), for which the “Phage binding ELISA Backgroud signal” value is on record as 0.323.

Turning to Phage-329 (MDWCPRALWNVCFA), the “Phage binding ELISA Backgroud signal” value is on record as 0.071.

For the substance Phage-330 (MDWCPRFLWDVCFN), the “Phage binding ELISA Backgroud signal” value came to 0.100.

Regarding Phage-331 (MDWCPRHLWDECFY), the “Phage binding ELISA Backgroud signal” value was 0.098.

With Phage-332 (IDWCPRALWDACLA), the “Phage binding ELISA Backgroud signal” value is 0.269.

As to Phage-333 (MDWCPTDLWHECFA), the “Phage binding ELISA Backgroud signal” value is reported as 0.078.

Consider Phage-334 (MDWCPRYLWDECFS), for which the “Phage binding ELISA Backgroud signal” value turned out to be 0.069.

With Phage-335 (MDWCPRFLWDYCFA), the “Phage binding ELISA Backgroud signal” value is 0.146.

As for Phage-336 (MDWCPRDLWNWCFN), the “Phage binding ELISA Backgroud signal” value was found to be 0.139.

With Phage-337 (MDWCPKPLWHVCFA), the “Phage binding ELISA Backgroud signal” value was 0.069.

As to Phage-338 (MDWCPRFLWNECFY), the “Phage binding ELISA Backgroud signal” value was 0.143.

Consider Phage-339 (MDWCPRTLWDQCFF), for which the “Phage binding ELISA Backgroud signal” value is recorded as 0.088.

Take Phage-340 (MSWCPIDLWSECFA): the “Phage binding ELISA Backgroud signal” value is reported as 0.072.

For the substance Phage-341 (MDWCPRHLWDECFN), the “Phage binding ELISA Backgroud signal” value is 0.084.

As to Phage-342 (MDWCPRNLWHECFA), the “Phage binding ELISA Backgroud signal” value stood at 0.067.

Regarding Phage-343 (MDWCPRDLWTQCFF), the “Phage binding ELISA Backgroud signal” value is 0.065.
